Drawing on ChEMBL document CHEMBL4138151, “Discovery of a head-to-tail cyclic peptide as the Keap1-Nrf2 protein-protein interaction inhibitor with high cell potency” (Eur J Med Chem, 2018), this text covers inhibition and Activity for two compounds.

Calls of active or inactive are those of the source. The rule behind the calls is not given here.

Experiment [1] has as its target T1, Kelch-like ECH-associated protein 1/Nuclear factor erythroid 2-related factor 2 (Mus musculus) (UniProt Q60795+Q9Z2X8). Nature of the experiment: Inhibition of Keap1/Nrf2 protein-protein interaction in mouse RAW264.7 cells assessed as upregulation of HO-1 mRNA expression at 0.1 to 10 uM after 10 hrs by quantitative real-time-PCR analysis. The format is cell-based.

The target of experiment [2] is T1, Kelch-like ECH-associated protein 1/Nuclear factor erythroid 2-related factor 2 (Mus musculus). Put plainly: Inhibition of Keap1/Nrf2 protein-protein interaction in mouse RAW264.7 cells assessed as upregulation of GCLM mRNA expression at 0.1 to 10 uM after 10 hrs by quantitative real-time-PCR analysis. The format is cell-based.
Experiment [3] shares this target. Put plainly: Inhibition of Keap1/Nrf2 protein-protein interaction in mouse RAW264.7 cells assessed as upregulation of NQO1 mRNA expression at 0.1 to 10 uM after 10 hrs by quantitative real-time-PCR analysis. It counts as cell-based.
For experiment [4] the target is unchanged. Put plainly: Inhibition of Keap1/Nrf2 protein-protein interaction in mouse RAW264.7 cells assessed as increase in GCLM levels up to 10 uM after 8 hrs by Western blot analysis. It counts as cell-based. In general terms: In western blotting, separated proteins are transferred to a membrane and probed.
For experiment [5] the target is unchanged. Nature of the experiment: Inhibition of Keap1/Nrf2 protein-protein interaction in mouse RAW264.7 cells assessed as increase in NQO1 levels up to 10 uM after 8 hrs by Western blot analysis. The format is cell-based.
Experiment [6] shares this target. Put plainly: Inhibition of Keap1/Nrf2 protein-protein interaction in mouse RAW264.7 cells assessed as increase in HO-1 levels up to 10 uM after 8 hrs by Western blot analysis. The format is cell-based.
Experiment [7] relates to RAW264.7. Conditions: Mus musculus, up to 10 µM.
Description: Anti-inflammatory activity in mouse RAW264.7 cells assessed as inhibition of LPS-induced IL-18 production up to 10 uM pretreated for 10 hrs followed by LPS stimulation for 12 hrs by ELISA
Experiment [8] relates to RAW264.7. Nature of the experiment: Anti-inflammatory activity in mouse RAW264.7 cells assessed as reduction in LPS-induced NO production by measuring NO level at 10 uM preincubated for 10 hrs followed by LPS stimulation for 12 hrs by Griess assay (reference value: 50 uM). The format is functional. Background: Nitrite, measured by Griess reagent, commonly stands in for NO production.

For experiment [9], the system named is RAW264.7. Nature of the experiment: Anti-inflammatory activity in mouse RAW264.7 cells assessed as inhibition of LPS-induced TNFalpha production up to 10 uM pretreated for 10 hrs followed by LPS stimulation for 12 hrs by ELISA. The format is functional, cell-based. (ELISA stands for enzyme-linked immunosorbent assay.)
For experiment [10], the system named is RAW264.7. Put plainly: Anti-inflammatory activity in mouse RAW264.7 cells assessed inhibition of LPS-induced increase in MPO activity at 10 uM. It counts as functional, cell-based.
The subject of experiment [11] is RAW264.7. Nature of the experiment: Anti-inflammatory activity in mouse RAW264.7 cells assessed restoration of LPS-induced decrease in GSH-Px activity at 10 uM. It counts as functional, cell-based.
The target of experiment [12] is T1, Kelch-like ECH-associated protein 1/Nuclear factor erythroid 2-related factor 2 (Mus musculus). Nature of the experiment: Inhibition of Keap1/Nrf2 protein-protein interaction in mouse RAW264.7 cells assessed as upregulation of NQO1 mRNA expression at 1 uM after 10 hrs by quantitative real-time-PCR analysis. The format is cell-based.
The test system of experiment [13] is RAW264.7. Nature of the experiment: Upregulation of GSH-Px protein expression in mouse RAW264.7 cells at 1 uM after 8 hrs by Western blot analysis. It counts as functional, cell-based.
Experiment [14] relates to RAW264.7. Put plainly: Anti-inflammatory activity in mouse RAW264.7 cells assessed as restoration of LPS-induced decrease in SOD activity at 10 uM. The format is functional, cell-based.
For experiment [15], the target named is T1, Kelch-like ECH-associated protein 1/Nuclear factor erythroid 2-related factor 2 (Mus musculus). Nature of the experiment: Inhibition of Keap1/Nrf2 protein-protein interaction in mouse RAW264.7 cells assessed as upregulation of HO1 mRNA expression at 1 uM after 10 hrs by quantitative real-time-PCR analysis. The format is cell-based.
Experiment [16] has as its system RAW264.7. Nature of the experiment: Inhibition of LPS-induced increase in ROS levels in mouse RAW264.7 cells up to 10 uM preincubated for 10 hrs followed by LPS stimulation for 12 hrs by cH2DCF-DA dye-based fluorescent microscopy. The format is functional, cell-based.
Experiment [17] has as its target T1, Kelch-like ECH-associated protein 1/Nuclear factor erythroid 2-related factor 2 (Mus musculus). Put plainly: Inhibition of Keap1/Nrf2 protein-protein interaction in mouse RAW264.7 cells assessed as upregulation of GCLM mRNA expression at 1 uM after 10 hrs by quantitative real-time-PCR analysis. It counts as cell-based.
In experiment [18] the test system is RAW264.7. Put plainly: Upregulation of SOD protein expression in mouse RAW264.7 cells at 1 uM after 8 hrs by Western blot analysis. It counts as functional, cell-based.
The subject of experiment [19] is RAW264.7. Nature of the experiment: Anti-inflammatory activity in mouse RAW264.7 cells assessed as inhibition of LPS-induced IL-1beta production up to 10 uM pretreated for 10 hrs followed by LPS stimulation for 12 hrs by ELISA. The format is functional, cell-based.

T1 sequence (Q60795 whole entry, looked up): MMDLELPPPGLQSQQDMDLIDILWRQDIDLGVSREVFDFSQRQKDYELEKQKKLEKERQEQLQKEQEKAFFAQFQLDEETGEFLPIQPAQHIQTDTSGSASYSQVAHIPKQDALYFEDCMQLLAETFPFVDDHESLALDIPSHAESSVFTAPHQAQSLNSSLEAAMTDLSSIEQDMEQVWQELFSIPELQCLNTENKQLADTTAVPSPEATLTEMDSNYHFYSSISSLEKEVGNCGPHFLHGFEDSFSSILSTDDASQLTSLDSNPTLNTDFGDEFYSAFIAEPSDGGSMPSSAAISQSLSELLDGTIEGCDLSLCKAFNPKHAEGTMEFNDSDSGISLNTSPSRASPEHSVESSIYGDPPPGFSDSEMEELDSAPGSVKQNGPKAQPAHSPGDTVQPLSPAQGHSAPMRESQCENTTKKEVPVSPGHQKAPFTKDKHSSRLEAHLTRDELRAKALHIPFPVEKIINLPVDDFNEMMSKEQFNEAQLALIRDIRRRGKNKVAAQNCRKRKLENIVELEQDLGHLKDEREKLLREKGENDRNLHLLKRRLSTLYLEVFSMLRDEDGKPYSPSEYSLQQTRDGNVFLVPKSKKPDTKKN
T1 sequence (Q9Z2X8 whole entry, looked up): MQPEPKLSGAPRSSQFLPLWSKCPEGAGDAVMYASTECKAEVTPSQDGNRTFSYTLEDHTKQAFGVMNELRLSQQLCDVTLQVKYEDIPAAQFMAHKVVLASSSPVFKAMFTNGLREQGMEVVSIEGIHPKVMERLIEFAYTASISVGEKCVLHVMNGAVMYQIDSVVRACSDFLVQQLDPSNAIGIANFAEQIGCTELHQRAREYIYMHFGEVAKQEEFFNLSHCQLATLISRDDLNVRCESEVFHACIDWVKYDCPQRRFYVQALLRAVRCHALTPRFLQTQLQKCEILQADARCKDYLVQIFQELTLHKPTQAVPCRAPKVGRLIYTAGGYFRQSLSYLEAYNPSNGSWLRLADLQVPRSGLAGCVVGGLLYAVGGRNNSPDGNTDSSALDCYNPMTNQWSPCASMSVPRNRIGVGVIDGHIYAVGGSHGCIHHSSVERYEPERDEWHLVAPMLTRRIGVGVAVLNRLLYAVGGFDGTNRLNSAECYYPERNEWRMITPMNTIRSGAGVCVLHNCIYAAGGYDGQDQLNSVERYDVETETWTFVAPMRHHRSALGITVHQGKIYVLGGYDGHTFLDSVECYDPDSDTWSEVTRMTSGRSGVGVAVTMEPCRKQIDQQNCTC

For `CC(=O)NCC(=O)N[C@@H](CCC(N)=O)C(=O)N[C@@H](CC(C)C)C(=O)N[C@@H](CC(=O)O)C(=O)N1CCC[C@H]1C(=O)N[C@@H](CCC(=O)O)C(=O)N[C@H](C(=O)NCC(=O)N[C@@H](CCC(=O)O)C(=O)N[C@@H](Cc1ccccc1)C(=O)N[C@@H](CC(C)C)C(=O)O)[C@@H](C)O`, the inhibition result in experiment [1], in [2], in experiment [3], in experiment [4], in experiment [5] and in experiment [6] was “inactive” in each case.

Take `CC(C)C[C@@H]1NC(=O)[C@H](Cc2ccccc2)NC(=O)[C@H](CCC(=O)O)NC(=O)CNC(=O)[C@H]([C@@H](C)O)NC(=O)[C@H](CCC(=O)O)NC(=O)[C@@H]2CCCN2C(=O)[C@H](CC(=O)O)NC(=O)[C@H](CC(C)C)NC(=O)[C@H](CCC(N)=O)NC(=O)CNC1=O`: the inhibition entry in experiment [7], in [9], in [10], in [12], in [4] and in experiment [5] was “Active” throughout. Besides, the inhibition result in experiment [15], in experiment [16], in experiment [17], in experiment [19] and in experiment [6] was “Active” each time. In addition, the Activity in experiment [8] is 14 µM. In addition, the outcome in experiment [11], in experiment [13], in experiment [14] and in experiment [18] was Active.
